Assay results reported in US9474790B2, “Stable, protracted GLP-1/glucagon receptor co-agonists for medical use” (Novo Nordisk A/S, priority 2013, dated 2016).
Numbered stars: 1 amine (or outer) side, 2 acyl side, 3 side chain; on linkers, the order of the positions; unused ones are H or OH. Square brackets hold non-standard residues; d marks the D form. Side chains are listed from the residue outwards. Peptide text beside a SMILES is read from it. * marks the point of attachment. C18 diacid = O=C(O)CCCCCCCCCCCCCCCCC(=O)*; γGlu = O=C(O)[C@H](CCC(=O)[*:2])N[*:1]; AEEA = NCCOCCOCC(=O)O; Aib = CC(C)(N)C(=O)O

target: T1, human glucagon receptor (Homo sapiens, UniProt P47871); assay: Glucagon receptor binding, 125I-glucagon displacement SPA on isolated membranes; conditions: displacement of 125I-glucagon from membranes; read-out: IC50 GlucR
T1 construct: expressed in transfected cells; host or cells: BHK cells (parent BHK570, CRE luciferase clone BHK/KZ10-20-48), clone pLJ6'-4-25
T1 sequence (P47871 26-477): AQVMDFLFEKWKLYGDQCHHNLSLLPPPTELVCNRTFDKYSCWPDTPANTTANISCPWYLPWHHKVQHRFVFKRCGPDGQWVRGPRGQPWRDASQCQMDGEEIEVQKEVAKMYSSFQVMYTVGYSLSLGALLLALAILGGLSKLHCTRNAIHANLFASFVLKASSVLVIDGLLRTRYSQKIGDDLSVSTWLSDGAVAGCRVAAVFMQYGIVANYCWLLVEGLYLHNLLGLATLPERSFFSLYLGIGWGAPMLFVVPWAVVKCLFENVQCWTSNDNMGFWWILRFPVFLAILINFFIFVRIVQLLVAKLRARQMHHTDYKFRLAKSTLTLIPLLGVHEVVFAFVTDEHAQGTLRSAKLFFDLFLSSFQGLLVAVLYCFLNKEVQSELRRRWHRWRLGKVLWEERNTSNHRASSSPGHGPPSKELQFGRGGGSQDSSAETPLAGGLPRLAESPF
Description: The purpose of this assay was to test the in vitro receptor binding activity (i.e. affinity) of the glucagon derivatives of the invention. The receptor binding activity is a measure of affinity of a derivative for the human glucagon receptor.
The receptor binding of each compound to the human glucagon receptor was measured in a displacement binding assay. In this type of assay a labelled ligand (in this case 125I-glucagon) is bound to the receptor. Each derivative was added in a series of concentrations to isolated membranes containing the human glucagon receptor and displacement of the labelled ligand is monitored. The receptor binding was reported as the concentration at which half of the labelled ligand is displaced from the receptor, the IC50 value.
In order to test the binding of the derivatives to albumin, the assay may be performed in a very low concentration of serum albumin (max. 0.001% final assay concentration) as well as in the presence of a higher concentration of serum albumin (0.2% final assay concentration). An increase of the IC50 value, in the presence of serum albumin indicates an affinity to serum albumin and represents a method to predict a protracted pharmacokinetic profile of the test substance in animal models.
The following chemicals were used in the assay: DMEM w Glutamax (Gibco 61965-026), Pen/strep (Invitrogen 15140-122), G418 (Invitrogen 10131-027), Versene (Gibco 15040), 1 M Hepes (Gibco 15630), PBS (Invitrogen 14190-094), fetal calf serum (Invitrogen 16140-071), MgCl2 (Merck 1.05832.1000), EDTA (Invitrogen 15575-038), CaCl2 (Sigma, C5080), Tween 20 (Amresco 0850C335), ovalbumin (Sigma A5503), SPA particles (wheat germ agglutinin (WGA) SPA beads, Perkin Elmer RPNQ0001), [125I]-glucagon (produced in-house), OptiPlate™-96 (Packard 6005290).
HME buffer consisted of 25 mM HEPES, 2 mM MgCl2 and 1 mM EDTA, and pH was adjusted to 7.4. Assay buffer consisted of 50 mM HEPES supplemented with 5 mM MgCl2, 1 mM CaCl2, 0.02% Tween 20 and 0.1% Ovalbumin, and pH was adjusted to 7.4.
The cells used in this assay (clone BHK hGCGR A3*25) were BHK cells stable transfected with an expression plasmid containing the cDNA encoding the human glucagon receptor.
The cells were grown at 5% CO2 in DMEM, 10% fetal calf serum, 1% Pen/Strep (Penicillin/Streptomycin) and 1.0 mg/ml of the selection marker G418. To make a membrane preparation the cells were grown to approximately 80% confluence. The cells were washed twice in phosphate-buffered saline and harvested. The cells were pelleted using a brief centrifugation and the cell pellet was kept on ice. Lyse the cells by adding approx. 5 ml HME buffer, mix by pipetting and snap freeze in liquid nitrogen. Thaw quickly and add HME buffer to 10 ml. The cell pellet was homogenised with an ULTRA-THURRAX dispersing instrument for 20-30 sec. The homogenate was centrifuged at 20.000×G, 4° C. for 10 min. The pellet was re-suspended (homogenised) in 1-2 ml HME buffer. The protein concentration was determined. The membranes were aliquoted and snap-frozen in liquid nitrogen and stored at minus 80° C.
1. For the receptor binding assay, 50 μl of the assay buffer was added to each well of an assay plate.
2. Test compounds were serially diluted to give the following concentrations: 8×10EE-7 M, 8×10EE-8 M, 8×10EE-9 M, 8×10EE-10 M, 8×10EE-11 M, 8×10EE-12 M and 8×10EE-13 M. Twenty-five μl were added to appropriate wells in the assay plate.
3. Cell membrane aliquots were thawed and diluted to their working concentration. Fifty μl were added to each well in the assay plate.
4. WGA SPA beads were suspended in assay buffer at 20 mg/ml. The suspension was diluted to 10 mg/ml in assay buffer just prior to addition to the assay plate. Fifty μl were added to each well in the assay plate.
5. The incubation was started by adding 25 μl of 480 pM solution of [125I]-glucagon to each well of the assay plate. A 25 μl aliquot was reserved for measuring total counts/well.
6. The assay plate was incubated for 2 h at 25° C.
7. […]

SMILES	IC50 [nM]
CC(C)C[C@H](NC(=O)[C@H](Cc1ccc(O)cc1)NC(=O)[C@H](CCCCN)NC(=O)[C@H](CO)NC(=O)[C@H](CC(C)C)NC(=O)[C@H](CC(=O)O)NC(=O)[C@H](CO)NC(=O)[C@@H](NC(=O)[C@H](Cc1ccccc1)NC(=O)[C@@H](NC(=O)CNC(=O)[C@H](CCC(N)=O)NC(=O)C(C)(C)NC(=O)[C@@H](N)Cc1c[nH]cn1)[C@@H](C)O)[C@@H](C)O)C(=O)N[C@@H](CCC(=O)O)C(=O)N[C@@H](CO)C(=O)N[C@@H](CCCNC(=N)N)C(=O)N[C@@H](CCCNC(=N)N)C(=O)N[C@@H](C)C(=O)N[C@@H](CCCNC(=N)N)C(=O)N[C@@H](CCC(=O)O)C(=O)N[C@@H](Cc1ccccc1)C(=O)N[C@H](C(=O)N[C@@H](CCC(N)=O)C(=O)N[C@@H](Cc1c[nH]c2ccccc12)C(=O)N[C@@H](CC(C)C)C(=O)N[C@@H](CC(C)C)C(=O)N[C@@H](CCCCNC(=O)CC[C@H](NC(=O)COCCOCCNC(=O)COCCOCCNC(=O)CC[C@H](NC(=O)CC[C@H](NC(=O)CCCCCCCCCCCCCCCCC(=O)O)C(=O)O)C(=O)O)C(=O)O)C(=O)N[C@H](C(N)=O)[C@@H](C)O)C(C)C [Example 20, N^ε29-[(4S)-4-carboxy-4-[[2-[2-[2-[[2-[2-[2-[[(4S)-4-carboxy-4-[[(4S)-4-carboxy-4-(17-carboxyheptadecanoylamino)butanoyl]amino]butanoyl]amino]ethoxy]ethoxy]acetyl]amino]ethoxy]ethoxy]acetyl]amino]butanoyl]-[Aib2,Leu10,Glu15,Arg20,Glu21,Leu27,Lys28]-Glucagon amide] (H-H[Aib]QGTFTSDLSKYLESRRAREFVQWLLK([γGlu-AEEA-AEEA-γGlu-γGlu-C18 diacid])T-NH2; N-terminus assumed)	6.7
CC(C)C[C@H](NC(=O)[C@H](Cc1ccc(O)cc1)NC(=O)[C@H](CCCCN)NC(=O)[C@H](CO)NC(=O)[C@H](CC(C)C)NC(=O)[C@H](CC(=O)O)NC(=O)[C@H](CO)NC(=O)[C@@H](NC(=O)[C@H](Cc1ccccc1)NC(=O)[C@@H](NC(=O)CNC(=O)[C@H](CCC(N)=O)NC(=O)C(C)(C)NC(=O)[C@@H](N)Cc1c[nH]cn1)[C@@H](C)O)[C@@H](C)O)C(=O)N[C@@H](CCC(=O)O)C(=O)N[C@@H](CO)C(=O)N[C@@H](CCCNC(=N)N)C(=O)N[C@@H](CCCNC(=N)N)C(=O)N[C@@H](C)C(=O)N[C@@H](CCCNC(=N)N)C(=O)N[C@@H](CCC(=O)O)C(=O)N[C@@H](Cc1ccccc1)C(=O)N[C@H](C(=O)N[C@@H](CCC(N)=O)C(=O)N[C@@H](Cc1c[nH]c2ccccc12)C(=O)N[C@@H](CC(C)C)C(=O)N[C@@H](CC(C)C)C(=O)N[C@@H](CCCCNC(=O)CC[C@H](NC(=O)CC[C@H](NC(=O)COCCOCCNC(=O)COCCOCCNC(=O)CC[C@H](NC(=O)CCCCCCCCCCCCCCCCC(=O)O)C(=O)O)C(=O)O)C(=O)O)C(=O)N[C@H](C(N)=O)[C@@H](C)O)C(C)C [Example 23, N^ε28-[(4S)-4-carboxy-4-[[(4S)-4-carboxy-4-[[2-[2-[2-[[2-[2-[2-[[(4S)-4-carboxy-4-(17-carboxyheptadecanoylamino)butanoyl]amino]ethoxy]ethoxy]acetyl]amino]ethoxy]ethoxy]acetyl]amino]butanoyl]amino]butanoyl]-[Aib2,Leu10,Glu15,Arg20,Glu21,Leu27,Lys28]-Glucagon amide] (H-H[Aib]QGTFTSDLSKYLESRRAREFVQWLLK([γGlu-γGlu-AEEA-AEEA-γGlu-C18 diacid])T-NH2; N-terminus assumed)	6.4
CC(C)C[C@H](NC(=O)[C@H](CC(=O)O)NC(=O)[C@H](CC(C)C)NC(=O)[C@H](Cc1ccc(O)cc1)NC(=O)[C@H](CCCCN)NC(=O)[C@H](CO)NC(=O)[C@H](CC(C)C)NC(=O)[C@H](CC(=O)O)NC(=O)[C@H](CO)NC(=O)[C@@H](NC(=O)[C@H](Cc1ccccc1)NC(=O)[C@@H](NC(=O)CNC(=O)[C@H](CCC(N)=O)NC(=O)C(C)(C)NC(=O)[C@@H](N)Cc1c[nH]cn1)[C@@H](C)O)[C@@H](C)O)C(=O)N[C@@H](CCCCN)C(=O)N[C@@H](CCCNC(=N)N)C(=O)N[C@@H](C)C(=O)N[C@@H](CCCNC(=N)N)C(=O)N[C@@H](CCC(=O)O)C(=O)N[C@@H](Cc1ccccc1)C(=O)N[C@H](C(=O)N[C@@H](CCC(N)=O)C(=O)N[C@@H](Cc1c[nH]c2ccccc12)C(=O)N[C@@H](CC(C)C)C(=O)N[C@@H](CC(C)C)C(=O)N[C@@H](CCCCNC(=O)CC[C@H](NC(=O)CC[C@H](NC(=O)COCCOCCNC(=O)COCCOCCNC(=O)CC[C@H](NC(=O)CCCCCCCCCCCCCCCCC(=O)O)C(=O)O)C(=O)O)C(=O)O)C(=O)N[C@H](C(N)=O)[C@@H](C)O)C(C)C [Example 26, N^ε28-[(4S)-4-carboxy-4-[[(4S)-4-carboxy-4-[[2-[2-[2-[[2-[2-[2-[[(4S)-4-carboxy-4-(17-carboxyheptadecanoylamino)butanoyl]amino]ethoxy]ethoxy]-acetyl]amino]ethoxy]ethoxy]acetyl]amino]butanoyl]amino]butanoyl]-[Aib2,Leu10,Leu16,Lys17,Arg20,Glu21, Leu27,Lys28]-Glucagon amide] (H-H[Aib]QGTFTSDLSKYLDLKRAREFVQWLLK([γGlu-γGlu-AEEA-AEEA-γGlu-C18 diacid])T-NH2)	4
CC(C)C[C@H](NC(=O)[C@H](Cc1ccc(O)cc1)NC(=O)[C@H](CCCCN)NC(=O)[C@H](CO)NC(=O)[C@H](CC(C)C)NC(=O)[C@H](CC(=O)O)NC(=O)[C@H](CO)NC(=O)[C@@H](NC(=O)[C@H](Cc1ccccc1)NC(=O)[C@@H](NC(=O)CNC(=O)[C@H](Cc1c[nH]cn1)NC(=O)C(C)(C)NC(=O)[C@@H](N)Cc1c[nH]cn1)[C@@H](C)O)[C@@H](C)O)C(=O)N[C@@H](CCC(=O)O)C(=O)N[C@@H](CO)C(=O)N[C@@H](CCCCN)C(=O)N[C@@H](CCCNC(=N)N)C(=O)N[C@@H](C)C(=O)N[C@@H](CCCNC(=N)N)C(=O)N[C@@H](CCC(=O)O)C(=O)N[C@@H](Cc1ccccc1)C(=O)N[C@H](C(=O)N[C@@H](CCC(N)=O)C(=O)N[C@@H](Cc1c[nH]c2ccccc12)C(=O)N[C@@H](CC(C)C)C(=O)N[C@@H](CC(C)C)C(=O)N[C@@H](CCCCNC(=O)CC[C@H](NC(=O)CC[C@H](NC(=O)COCCOCCNC(=O)COCCOCCNC(=O)CC[C@H](NC(=O)CCCCCCCCCCCCCCCCC(=O)O)C(=O)O)C(=O)O)C(=O)O)C(=O)N[C@H](C(N)=O)[C@@H](C)O)C(C)C [Example 27, N^ε28-[(4S)-4-carboxy-4-[[(4S)-4-carboxy-4-[[2-[2-[2-[[2-[2-[2-[[(4S)-4-carboxy-4-(17-carboxyheptadecanoylamino)butanoyl]amino]ethoxy]ethoxy]acetyl]amino]ethoxy]ethoxy]acetyl]amino]butanoyl]amino]butanoyl]-[Aib2,His3,Leu10,Glu15,Lys17,Arg20,Glu21,Leu27, Lys28]-Glucagon amide] (H-H[Aib]HGTFTSDLSKYLESKRAREFVQWLLK([γGlu-γGlu-AEEA-AEEA-γGlu-C18 diacid])T-NH2; N-terminus assumed)	0.7
